Key:
Type in all cases: cell-based
[1] = biological target: T1, Baculoviral IAP repeat-containing protein 2/E3 ubiquitin-protein ligase XIAP/Aryl hydrocarbon receptor (Homo sapiens, UniProt P35869+P98170+Q13490); test: SNIPER activity at IAP/AhR in human MCF7 cells assessed as induction of AhR protein degradation by measuring AhR protein level at 10 uM incubated for 24 hrs by western blot analysis relative to lamin B; details: mcf7, 24 h
[2] = biological target: T2, IAP/Androgen receptor (Homo sapiens) (UniProt P10275+P98170+Q13490); test: SNIPER activity at IAP/AR in human MCF7 cells assessed as induction of AR protein degradation by measuring AR protein level at 10 uM incubated for 8 hrs by western blot analysis relative to lamin B
[3] = biological target: T2, IAP/Androgen receptor (Homo sapiens); test: SNIPER activity at IAP/AR in human MCF7 cells assessed as induction of AR protein degradation by measuring AR protein level at 20 uM incubated for 24 hrs by western blot analysis relative to lamin B
[4] = biological target: T2, IAP/Androgen receptor (Homo sapiens); test: SNIPER activity at IAP/AR in human MCF7 cells assessed as induction of AR protein degradation by measuring AR protein level at 5 uM incubated for 24 hrs by western blot analysis relative to lamin B
[5] = biological target: T2, IAP/Androgen receptor (Homo sapiens); test: SNIPER activity at IAP/AR in human MCF7 cells assessed as induction of AR protein degradation by measuring AR protein level at 10 uM incubated for 24 hrs by western blot analysis relative to lamin B
[6] = biological target: T1, Baculoviral IAP repeat-containing protein 2/E3 ubiquitin-protein ligase XIAP/Aryl hydrocarbon receptor; test: SNIPER activity at IAP/AhR in human MCF7 cells assessed as induction of AhR protein degradation by measuring AhR protein level at 5 uM incubated for 8 hrs by western blot analysis relative to lamin B; details: mcf7, 8 h
[7] = biological target: T3, IAP-Estrogen receptor (Homo sapiens) (UniProt P03372+P98170+Q13490); test: SNIPER activity at IAP/ERalpha in human MCF7 cells assessed as induction of ERalpha protein degradation by measuring ERalpha protein level at 5 uM incubated for 8 hrs by western blot analysis relative to lamin B
[8] = biological target: T3, IAP-Estrogen receptor (Homo sapiens); test: SNIPER activity at IAP/ERalpha in human MCF7 cells assessed as induction of ERalpha protein degradation by measuring ERalpha protein level at 20 uM incubated for 8 hrs by western blot analysis relative to lamin B
[9] = biological target: T2, IAP/Androgen receptor (Homo sapiens); test: SNIPER activity at IAP/AR in XIAP/cIAP1 siRNA-transfected human MCF7 cells assessed as induction of AR protein degradation by measuring AR protein level at 20 uM incubated for 8 hrs by western blot analysis relative to lamin B
[10] = biological target: T1, Baculoviral IAP repeat-containing protein 2/E3 ubiquitin-protein ligase XIAP/Aryl hydrocarbon receptor; test: SNIPER activity at IAP/AhR in human MCF7 cells assessed as induction of AhR protein degradation by measuring AhR protein level at 5 uM incubated for 24 hrs by western blot analysis relative to lamin B; details: mcf7, 24 h
[11] = biological target: T3, IAP-Estrogen receptor (Homo sapiens); test: SNIPER activity at IAP/ERalpha in cIAP1 siRNA-transfected human MCF7 cells assessed as induction of ERalpha protein degradation by measuring ERalpha protein level at 20 uM incubated for 8 hrs by western blot analysis relative to lamin B
[12] = biological target: T3, IAP-Estrogen receptor (Homo sapiens); test: SNIPER activity at IAP/ERalpha in human MCF7 cells assessed as induction of ERalpha protein degradation by measuring ERalpha protein level at 20 uM incubated for 24 hrs by western blot analysis relative to lamin B
[13] = biological target: T1, Baculoviral IAP repeat-containing protein 2/E3 ubiquitin-protein ligase XIAP/Aryl hydrocarbon receptor; test: SNIPER activity at IAP/AhR in human MCF7 cells assessed as induction of AhR protein degradation by measuring AhR protein level at 20 uM incubated for 8 hrs in presence of proteasome inhibitor, MG132 by western blot analysis relative to lamin B; details: mcf7, 8 h
[14] = biological target: T2, IAP/Androgen receptor (Homo sapiens); test: SNIPER activity at IAP/AR in human MCF7 cells assessed as induction of AR protein degradation by measuring AR protein level at 5 uM incubated for 8 hrs by western blot analysis relative to lamin B
[15] = biological target: T1, Baculoviral IAP repeat-containing protein 2/E3 ubiquitin-protein ligase XIAP/Aryl hydrocarbon receptor; test: SNIPER activity at IAP/AhR in human MCF7 cells assessed as induction of AhR protein degradation by measuring AhR protein level at 20 uM incubated for 8 hrs in presence of ubiquitin activating inhibitor MLN7243 by western blot analysis relative to lamin B; details: mcf7, 8 h
[16] = biological target: T3, IAP-Estrogen receptor (Homo sapiens); test: SNIPER activity at IAP/ERalpha in human MCF7 cells assessed as induction of ERalpha protein degradation by measuring ERalpha protein level at 20 uM incubated for 8 hrs in presence of ubiquitin activating inhibitor MLN7243 by western blot analysis relative to lamin B
[17] = biological target: T2, IAP/Androgen receptor (Homo sapiens); test: SNIPER activity at IAP/AR in human MCF7 cells assessed as induction of AR protein degradation by measuring AR protein level at 20 uM incubated for 8 hrs in presence of proteasome inhibitor, MG132 by western blot analysis relative to lamin B
[18] = biological target: T2, IAP/Androgen receptor (Homo sapiens); test: SNIPER activity at IAP/AR in human MCF7 cells assessed as induction of AR protein degradation incubated for 8 to 24 hrs by western blot analysis; details: time hrs 8-24
[19] = biological target: T1, Baculoviral IAP repeat-containing protein 2/E3 ubiquitin-protein ligase XIAP/Aryl hydrocarbon receptor; test: SNIPER activity at IAP/AhR in human MCF7 cells assessed as induction of AhR protein degradation by measuring AhR protein level at 20 uM incubated for 8 hrs by western blot analysis relative to lamin B; details: mcf7, 8 h
[20] = biological target: T3, IAP-Estrogen receptor (Homo sapiens); test: SNIPER activity at IAP/ERalpha in human MCF7 cells assessed as induction of ERalpha protein degradation by measuring ERalpha protein level at 10 uM incubated for 8 hrs by western blot analysis relative to lamin B
[21] = biological target: T3, IAP-Estrogen receptor (Homo sapiens); test: SNIPER activity at IAP/ERalpha in human MCF7 cells assessed as induction of ERalpha protein degradation incubated for 8 to 24 hrs by western blot analysis; details: time hrs 8-24
[22] = biological target: T3, IAP-Estrogen receptor (Homo sapiens); test: SNIPER activity at IAP/ERalpha in XIAP siRNA-transfected human MCF7 cells assessed as induction of ERalpha protein degradation by measuring ERalpha protein level at 20 uM incubated for 8 hrs by western blot analysis relative to lamin B
[23] = biological target: T3, IAP-Estrogen receptor (Homo sapiens); test: SNIPER activity at IAP/ERalpha in human MCF7 cells assessed as induction of ERalpha protein degradation by measuring ERalpha protein level at 5 uM incubated for 24 hrs by western blot analysis relative to lamin B
[24] = biological target: T2, IAP/Androgen receptor (Homo sapiens); test: SNIPER activity at IAP/AR in cIAP1 siRNA-transfected human MCF7 cells assessed as induction of AR protein degradation by measuring AR protein level at 20 uM incubated for 8 hrs by western blot analysis relative to lamin B
[25] = biological target: T3, IAP-Estrogen receptor (Homo sapiens); test: SNIPER activity at IAP/ERalpha in human MCF7 cells assessed as induction of ERalpha protein degradation by measuring ERalpha protein level at 10 uM incubated for 24 hrs by western blot analysis relative to lamin B
[26] = biological target: T2, IAP/Androgen receptor (Homo sapiens); test: SNIPER activity at IAP/AR in human MCF7 cells assessed as induction of AR protein degradation by measuring AR protein level at 20 uM incubated for 8 hrs in presence of ubiquitin activating inhibitor MLN7243 by western blot analysis relative to lamin B
[27] = biological target: T3, IAP-Estrogen receptor (Homo sapiens); test: SNIPER activity at IAP/ERalpha in XIAP/cIAP1 siRNA-transfected human MCF7 cells assessed as induction of ERalpha protein degradation by measuring ERalpha protein level at 20 uM incubated for 8 hrs by western blot analysis relative to lamin B
[28] = biological target: T1, Baculoviral IAP repeat-containing protein 2/E3 ubiquitin-protein ligase XIAP/Aryl hydrocarbon receptor; test: SNIPER activity at IAP/AhR in human MCF7 cells assessed as induction of AhR protein degradation by measuring AhR protein level at 20 uM incubated for 24 hrs by western blot analysis relative to lamin B; details: mcf7, 24 h
[29] = biological target: T1, Baculoviral IAP repeat-containing protein 2/E3 ubiquitin-protein ligase XIAP/Aryl hydrocarbon receptor; test: SNIPER activity at IAP/AhR in human MCF7 cells assessed as induction of AhR protein degradation by measuring AhR protein level at 10 uM incubated for 8 hrs by western blot analysis relative to lamin B; details: mcf7, 8 h
[30] = biological target: T2, IAP/Androgen receptor (Homo sapiens); test: SNIPER activity at IAP/AR in XIAP siRNA-transfected human MCF7 cells assessed as induction of AR protein degradation by measuring AR protein level at 20 uM incubated for 8 hrs by western blot analysis relative to lamin B
[31] = biological target: T3, IAP-Estrogen receptor (Homo sapiens); test: SNIPER activity at IAP/ERalpha in human MCF7 cells assessed as induction of ERalpha protein degradation by measuring ERalpha protein level at 20 uM incubated for 8 hrs in presence of proteasome inhibitor, MG132 by western blot analysis relative to lamin B
[32] = biological target: T2, IAP/Androgen receptor (Homo sapiens); test: SNIPER activity at IAP/AR in human MCF7 cells assessed as induction of AR protein degradation by measuring AR protein level at 20 uM incubated for 8 hrs by western blot analysis relative to lamin B

T1 sequence (P35869 whole entry): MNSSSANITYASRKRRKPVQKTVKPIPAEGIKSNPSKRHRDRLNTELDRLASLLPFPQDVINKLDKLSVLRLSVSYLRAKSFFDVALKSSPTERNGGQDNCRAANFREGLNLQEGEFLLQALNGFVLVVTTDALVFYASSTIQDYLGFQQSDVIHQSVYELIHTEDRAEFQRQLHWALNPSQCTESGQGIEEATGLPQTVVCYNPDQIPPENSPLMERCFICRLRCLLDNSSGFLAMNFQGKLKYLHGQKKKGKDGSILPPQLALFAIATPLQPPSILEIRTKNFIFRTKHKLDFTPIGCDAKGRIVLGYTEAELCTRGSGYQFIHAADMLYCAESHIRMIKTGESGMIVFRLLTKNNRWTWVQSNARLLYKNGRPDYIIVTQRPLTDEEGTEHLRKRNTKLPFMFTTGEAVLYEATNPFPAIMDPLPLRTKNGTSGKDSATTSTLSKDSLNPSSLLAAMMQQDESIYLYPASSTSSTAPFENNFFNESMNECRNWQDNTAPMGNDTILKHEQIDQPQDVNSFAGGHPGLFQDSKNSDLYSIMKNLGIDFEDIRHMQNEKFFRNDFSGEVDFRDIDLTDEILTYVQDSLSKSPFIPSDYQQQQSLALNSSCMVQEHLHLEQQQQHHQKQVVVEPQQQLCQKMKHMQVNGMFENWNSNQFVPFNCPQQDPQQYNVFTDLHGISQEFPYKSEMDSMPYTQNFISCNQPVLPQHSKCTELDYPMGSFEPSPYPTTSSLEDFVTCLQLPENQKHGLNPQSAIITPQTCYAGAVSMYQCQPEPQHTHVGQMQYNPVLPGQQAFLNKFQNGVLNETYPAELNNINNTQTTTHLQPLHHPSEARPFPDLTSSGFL
T1 sequence (P98170 whole entry): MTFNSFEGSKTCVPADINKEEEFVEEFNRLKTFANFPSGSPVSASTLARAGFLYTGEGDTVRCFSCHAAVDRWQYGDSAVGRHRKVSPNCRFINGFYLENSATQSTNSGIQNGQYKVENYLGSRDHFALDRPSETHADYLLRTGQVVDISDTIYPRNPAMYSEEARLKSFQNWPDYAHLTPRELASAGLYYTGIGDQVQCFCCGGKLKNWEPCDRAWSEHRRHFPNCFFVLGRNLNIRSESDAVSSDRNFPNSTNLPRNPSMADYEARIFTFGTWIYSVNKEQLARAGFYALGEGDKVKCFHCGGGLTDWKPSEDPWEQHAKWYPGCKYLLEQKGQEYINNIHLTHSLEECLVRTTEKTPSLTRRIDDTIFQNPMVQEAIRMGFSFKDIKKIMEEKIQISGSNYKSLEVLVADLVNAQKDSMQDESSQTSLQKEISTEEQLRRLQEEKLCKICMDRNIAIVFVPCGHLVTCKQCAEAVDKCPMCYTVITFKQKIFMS
T1 sequence (Q13490 whole entry): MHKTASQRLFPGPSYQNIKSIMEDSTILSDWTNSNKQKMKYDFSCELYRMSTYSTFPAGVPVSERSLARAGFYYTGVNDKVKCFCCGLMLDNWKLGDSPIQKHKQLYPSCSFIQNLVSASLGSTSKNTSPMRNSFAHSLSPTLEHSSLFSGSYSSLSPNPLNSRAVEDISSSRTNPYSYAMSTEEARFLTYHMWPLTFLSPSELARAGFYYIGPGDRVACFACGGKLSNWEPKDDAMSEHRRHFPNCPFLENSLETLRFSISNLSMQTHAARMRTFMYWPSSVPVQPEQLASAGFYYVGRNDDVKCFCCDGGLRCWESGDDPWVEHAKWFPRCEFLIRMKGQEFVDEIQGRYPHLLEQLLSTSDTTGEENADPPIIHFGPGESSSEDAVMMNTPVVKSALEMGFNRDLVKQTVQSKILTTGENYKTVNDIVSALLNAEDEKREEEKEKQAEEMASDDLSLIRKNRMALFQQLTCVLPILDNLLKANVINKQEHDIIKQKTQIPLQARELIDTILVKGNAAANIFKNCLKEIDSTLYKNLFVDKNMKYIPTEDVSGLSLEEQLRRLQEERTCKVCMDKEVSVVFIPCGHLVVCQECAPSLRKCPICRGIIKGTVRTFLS
T3 sequence (P03372 whole entry, looked up): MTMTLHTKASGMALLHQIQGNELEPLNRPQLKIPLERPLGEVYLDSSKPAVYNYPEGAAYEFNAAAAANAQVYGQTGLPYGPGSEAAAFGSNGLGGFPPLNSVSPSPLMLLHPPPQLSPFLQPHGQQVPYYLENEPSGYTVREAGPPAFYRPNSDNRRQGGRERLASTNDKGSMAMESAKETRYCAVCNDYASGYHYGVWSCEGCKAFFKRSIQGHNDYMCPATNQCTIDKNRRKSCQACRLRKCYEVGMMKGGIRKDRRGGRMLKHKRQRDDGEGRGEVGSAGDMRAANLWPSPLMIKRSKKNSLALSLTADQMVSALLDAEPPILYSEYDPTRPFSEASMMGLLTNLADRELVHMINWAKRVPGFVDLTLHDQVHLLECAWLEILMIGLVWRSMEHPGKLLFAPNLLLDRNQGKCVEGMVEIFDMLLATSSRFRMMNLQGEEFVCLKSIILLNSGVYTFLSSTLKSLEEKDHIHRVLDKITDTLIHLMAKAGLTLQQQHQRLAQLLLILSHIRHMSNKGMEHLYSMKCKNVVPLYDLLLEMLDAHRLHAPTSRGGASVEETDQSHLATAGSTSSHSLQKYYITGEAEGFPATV
T3 sequence (P98170 whole entry, looked up): as the sequence (P98170 whole entry) above
T3 sequence (Q13490 whole entry, looked up): as the sequence (Q13490 whole entry) above

CC[C@H](C)[C@@H]1NC(=O)[C@H](NC(=O)[C@@H](N)CCCCNC(=O)COCCOCCNC(=O)COCCOCCOc2cccc(C(=O)c3csc([C@@H]4CCCN4C(=O)[C@@H](NC(=O)[C@H](C)NC)C4CCCCC4)n3)c2)CSSC[C@@H](C(=O)N[C@@H](CCCNC(=N)N)C(=O)N[C@@H](CC(C)(C)C)C(=O)N[C@@H](CC(C)C)C(=O)N[C@@H](CCC(N)=O)C(=O)NCC(=O)NCC(=O)NCC(=O)N[C@@H](CCCNC(=N)N)C(=O)N[C@@H](CCCNC(=N)N)C(=O)N[C@@H](CCCNC(=N)N)C(=O)N[C@@H](CCCNC(=N)N)C(=O)N[C@@H](CCCNC(=N)N)C(=O)N[C@@H](CCCNC(=N)N)C(=O)N[C@@H](CCCNC(=N)N)C(N)=O)NC(=O)[C@H](CC(C)C)NC1=O
Activity [1]: 165%
Activity [2]: 63%
Activity [3]: 59%
Activity [4]: 99%
Activity [5]: 137%
Activity [6]: 111%
Activity [7]: 84%
Activity [8]: 46%
Activity [9]: 59%
Activity [10]: 100%
Activity [11]: 50%
Activity [12]: 35%
Activity [13]: 90%
Activity [14]: 81%
Activity [15]: 110%
Activity [16]: 122%
Activity [17]: 95%
Activity [18]: Dose-dependent effect
Activity [19]: 80%
Activity [20]: 68%
Activity [21]: Dose-dependent effect
Activity [22]: 62%
Activity [23]: 81%
Activity [24]: 78%
Activity [25]: 76%
Activity [26]: 117%
Activity [27]: 55%
Activity [28]: 103%
Activity [29]: 128%
Activity [30]: 57%
Activity [31]: 94%
Activity [32]: 36%

— ChEMBL document CHEMBL4725279, “Design and synthesis of peptide-based chimeric molecules to induce degradation of the estrogen and androgen receptors” (Bioorg Med Chem, 2020)
